# In publication PMC9114115, “Property space mapping of Pseudomonas aeruginosa permeability to small molecules” (Scientific Reports, 2022):
# “And” between values parts separate entries of the source, which are not always exact repeats. Equal values may be shown once. Where a name gives a salt, the structure may show the parent alone.
# Experiments:
# [1] = test system: P. aeruginosa PAO1; assay: MIC by two-fold dilution, wild type PAO1; assay type: cell-based, Pseudomonas aeruginosa; conditions: Pseudomonas aeruginosa; PAO1, MOPS-M9 medium; read-out: MICs
# Description: (§1) In all experiments, P. aeruginosa PAO1-Pore (PAO1 attTn7::PLAC-fhuA) and PΔ3-Pore (ΔmexAB ΔmexCD ΔmexXY attTn7::PLAC-fhuA) strains were used[29]. Strains were routinely grown in Luria–Bertani (LB) or MOPS-M9 medium at 37 °C with aeration. MICs shown in Tables 1 and 2 were determined by a two-fold dilution method in LB broth and MOPS-M9 medium, respectively, following the previously described protocol.
# [2] = test system: P. aeruginosa PAO1-Pore; assay: MIC by two-fold dilution, hyperporinated PAO1-Pore; assay type: cell-based, Pseudomonas aeruginosa; conditions: for MIC: Pseudomonas aeruginosa, PAO1, read-out: MICs
# Description: as §1
# [3] = test system: P. aeruginosa PΔ3; assay: microbe, parasite or virus in culture; assay type: cell-based, Pseudomonas aeruginosa; conditions: Pseudomonas aeruginosa, read-out: MICs
# Description: as §1
# [4] = test system: P. aeruginosa PΔ3-Pore; assay: MIC by two-fold dilution, barrierless PΔ3-Pore; assay type: cell-based, Pseudomonas aeruginosa; conditions: for MIC: Pseudomonas aeruginosa, read-out: MICs, P∆3-Pore, MOPS-M9 medium
# Description: as §1
# [5] = test system: P. aeruginosa PAO1 cells; assay: LC–MS quantification of intracellular accumulation, PAO1; conditions: 10-80 µM; for Concentration slopes of accumulation, PAO1_1 min: 1 min incubation; for Concentration slopes of accumulation, PAO1_40 min: 40 min incubation;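 on all read-outs here: slope of accumulation versus external concentration fitted as a line through zero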
# Description: (§2) PAO1-Pore and PΔ3-Pore were grown at 37 °C overnight with shaking at 225 rpm in 50 mM MOPS-M9 (pH 7.2) Minimal Medium supplemented with 1% glycerol[42],[43].
# (§3) The next day, cells were sub-cultured (1.5:100) in fresh MOPS-M9 medium and grown for 16 h. The cultures were then split into two flasks and one of them was induced with 0.1 mM IPTG. Cells incubated for additional 4 h until OD600 reached ~ 1.0 and harvested by centrifugation at 3,275xg for 20 min in RT, washed and concentrated 10X in the spent medium. Assays were performed in 96-well plates in a final volume of […]. Cells were incubated with 10, 20, 40, 80 µM of compounds and after 1- and 40-min incubation at RT, 100 µL cell aliquots were collected by vacuum filtration onto 1.0 µm Glass Fiber Type B filters. For no-cell controls, compounds were diluted to 10, 20, 40, 80 µM final concentration in the same medium, incubated for 1 min and 40 min and filtered onto the same plates. The cell loaded and cell-free filters were dried, removed from plates and placed into 100% methanol at -80 °C for at least 10 min. Filter-bound material was extracted by water bath sonication for 1 min. Cell and filter debris were separated by ultracentrifugation at 45,000 rpm (TLA55 rotor, Beckman) for 8 min at 16 °C and the pellet re-extracted with 80% methanol in water by sonication for 15 min followed by ultracentrifugation at the same conditions. Supernatants from two extractions were combined. For the compound quantification, 5 µL of solution was analyzed in triplicate.
# (§4) Calibration curves for MS analyses of compounds were generated in the same experiment by mixing compound at increasing concentrations with the sonicated PAO1 cell extracts. […] Azithromycin was used as a positive control in all experiments.
# (§5) Samples were processed in positive ion mode. An Eclipse plus C18 Rapid Resolution HD column (1.8 μm, 2.1 × 50 mm, Agilent, USA) was used for separation. The flow rate was 0.6 mL/min using the following gradient: 0 to 1 min (0- 20% ACN), 1 to 4 min (20- 80% ACN), 4 to 5.1 min (80–100% ACN), 5.1 to 6.30 (100% ACN). Solvents contained 0.1% formic acid to promote positive ion formation in the electrospray. […] Data were analyzed using Agilent Masshunter workstation quantitative analysis v. B.10 software.
# [6] = test system: P. aeruginosa PAO1-Pore cells; assay: LC–MS quantification of intracellular accumulation, PAO1-Pore; conditions: 10-80 µM; for Concentration slopes of accumulation, PAO1-Pore_1 min: 1 min incubation; for Concentration slopes of accumulation, PAO1-Pore_40 min: 40 min incubation;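 on all read-outs here: slope of accumulation versus external concentration fitted as a line through zero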
# Description: as §2, §3, §4, §5
# [7] = test system: P. aeruginosa PΔ3 cells; conditions: 10-80 µM; for Concentration slopes of accumulation, PΔ3_1 min: 1 min incubation; for Concentration slopes of accumulation, PΔ3_40 min: 40 min incubation;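 on all read-outs here: slope of accumulation versus external concentration fitted as a line through zero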
# Description: as §2, §3, §4, §5
# [8] = test system: P. aeruginosa PΔ3-Pore cells; assay: LC–MS quantification of intracellular accumulation, PΔ3-Pore; conditions: 10-80 µM; for Concentration slopes of accumulation, PΔ3-Pore_1 min: 1 min incubation; for Concentration slopes of accumulation, PΔ3-Pore_40min: 40 min incubation;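 on all read-outs here: slope of accumulation versus external concentration fitted as a line through zero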
# Description: as §2, §3, §4, §5
# [9] = test system: P. aeruginosa; conditions: for Cluster of the identified "good" permeators: sheet "Good" permeators, all listed compounds are good permeators
# Description: The measured levels of compound accumulation were analyzed using machine learning to determine which features of the compounds are most important for enabling their cellular accumulation and to determine their optimal values. […] To accentuate the permeability aspect, the accumulation slopes in efflux-deficient and hyperporinated strains were normalized to those in the parental PAO1 strain.
# To help visualize the data, we performed a principal component (PC) decomposition of the data.
Compound,MIC [1],"MICs ([2]; PAO1-Pore, LB broth, Table S2)",MIC [2],MIC [3],MIC [4],"MICs ([4]; P∆3-Pore, LB broth, Table S2)","Concentration slopes of accumulation, PAO1_1 min [5]","Concentration slopes of accumulation, PAO1_40 min [5]","Concentration slopes of accumulation, PAO1-Pore_1 min [6]","Concentration slopes of accumulation, PAO1-Pore_40 min [6]","Concentration slopes of accumulation, PΔ3_1 min [7]","Concentration slopes of accumulation, PΔ3_40 min [7]","Concentration slopes of accumulation, PΔ3-Pore_1 min [8]","Concentration slopes of accumulation, PΔ3-Pore_40min [8]","Cluster of the identified ""good"" permeators [9]",permeator classification [9]
"C[C@@H]1CN(c2c(F)c(N)c3c(=O)c(C(=O)O)cn(C4CC4)c3c2F)C[C@H](C)N1 [OU-0000617, SPARFLOXACIN]",2 µM and 0.8 µg/mL,0.25,0.031 µM and 0.01 µg/mL,0.5 µM and 0.2 µg/mL,0.016 µM and 0.01 µg/mL,0.0039,4.89,5.25,8.17,10.82,5.48,4.11,4.64,10.98,4,–
"CN1C[C@H](C(=O)N[C@]2(C)O[C@@]3(O)[C@@H]4CCCN4C(=O)[C@H](Cc4ccccc4)N3C2=O)C=C2c3cccc4[nH]cc(c34)C[C@H]21 [OU-0000834, Ergotamine Tartrate]",–,–,–,–,–,–,15.91,12.24,17.94,20.50,8.34,13.59,20.02,15.58,3,good permeators
"Cc1cc(C)nc(NS(=O)(=O)c2ccc(N)cc2)n1 [OU-0000689, SULFAMETHAZINE]",> 200 µM and > 60.1 µg/mL,–,50 µM and 15 µg/mL,100 µM and 30 µg/mL,12.5 µM and 3.75 µg/mL,–,1.42,1.40,1.53,1.05,1.31,1.35,1.54,1.19,1,–
C=CCN1CC(CCCC)N(C(=O)OC(C)(C)C)C(Cc2ccccc2)C1=O (centres unmarked) [OU-0032511],–,–,–,–,–,–,–,–,4.02,4.09,4.08,3.52,4.38,4.27,1,–
O=C1N[C@@H](Cc2c[nH]c3ccccc23)C(=O)N2CCC[C@@H]12 [OU-0032512],–,–,–,–,–,–,–,–,3.51,2.49,2.98,3.06,2.90,2.97,1,–
"N[C@@H](CC(=O)N1CCn2c(nnc2C(F)(F)F)C1)Cc1cc(F)c(F)cc1F [OU-0000833, Sitagliptin Monophosphate Monohydrate]",–,–,–,–,–,–,7.55,5.67,4.16,4.84,4.36,4.18,4.24,4.28,1,good permeators
